Assay results taken from PMC10574094, “Discovery of a SHP2 Degrader with In Vivo Anti-Tumor Activity” (Molecules, 2023).
Several values for one entry are separate records, joined by “and”; a condition that tells them apart may be missing. Equal entries are not always repeated.

Tests used:
KYSE-520 cells = experiment: CCK-8 cell proliferation assay; assay type: cell-based; conditions: Homo sapiens, 168 h; KYSE-520, CCK-8, 7 days; read-out: growth inhibition IC50
Procedure: The cell proliferation inhibition EC50 was determined by CCK-8 assay. KYSE-520 cells were seeded at 5 × 10^3 cells/well in 96 well plates. After 24 h, P9 was added to the medium starting at 80 μM in a 2-fold dilution rate of 0.16 μM. After 7 days, 10 μL of CCK-8 test solution (APExBIO Technology, Houston, TX, USA) was added into each well and incubated for 2 h at 37 °C. The optical density (OD) at 450 nm was measured with a microplate reader (Molecular Device, Sunnyvale, CA, USA). The cell viability rate at different concentrations of P9 treatment was determined with Prism, version 9.5.1 (GraphPad, San Diego, CA, USA).

[1] = Pharmacokinetics in mice, single IP injection; assay type: in vivo; conditions: for Plasma concentration / concentration at 0.5 h / concentration at 1 h / concentration at 2 h / concentration at 3 h / concentration at 6 h: individual animals; for concentration at 0.5 h / concentration at 1 h / concentration at 2 h / concentration at 3 h / concentration at 6 h / Cmax / half-life / AUC / Tmax: plasma; for concentration at 0.5 h / concentration at 1 h / concentration at 2 h / concentration at 3 h / concentration at 6 h: intraperitoneal; for Cmax / half-life / AUC / Tmax / t1/2: mice
Procedure: Experiments on mice were carried out in accordance with the regulations of the Institutional Animal Care and Use Committees at Purdue University. All mice were housed under pathogen-free conditions in the animal facility and received autoclaved water and food. Eight to ten weeks-old Nude mice were used in the study.
For pharmacokinetic studies, mice were administered a single dose of P9 at 25 or 50 mg/kg via IP injection. Blood samples were collected through the tail vein at indicated time points after injection. Isoflurane was used as an anesthetic. All blood samples were centrifuged at 1500 g for 5 min, and plasma was separated and stored at –80 °C until analysis by a validated method based on reversed-phase liquid chromatography coupled to mass-spectrometric detection (LC/MS) using a previously published procedure.

SHP2 = molecular target: T1, SHP2 (Homo sapiens, UniProt Q06124); experiment: SHP2 degradation by Western blotting in HEK293 cells; assay type: cell-based; design: endogenous in cells; host or cells: HEK293; conditions: HEK293 cells
T1 sequence (Q06124 1-593): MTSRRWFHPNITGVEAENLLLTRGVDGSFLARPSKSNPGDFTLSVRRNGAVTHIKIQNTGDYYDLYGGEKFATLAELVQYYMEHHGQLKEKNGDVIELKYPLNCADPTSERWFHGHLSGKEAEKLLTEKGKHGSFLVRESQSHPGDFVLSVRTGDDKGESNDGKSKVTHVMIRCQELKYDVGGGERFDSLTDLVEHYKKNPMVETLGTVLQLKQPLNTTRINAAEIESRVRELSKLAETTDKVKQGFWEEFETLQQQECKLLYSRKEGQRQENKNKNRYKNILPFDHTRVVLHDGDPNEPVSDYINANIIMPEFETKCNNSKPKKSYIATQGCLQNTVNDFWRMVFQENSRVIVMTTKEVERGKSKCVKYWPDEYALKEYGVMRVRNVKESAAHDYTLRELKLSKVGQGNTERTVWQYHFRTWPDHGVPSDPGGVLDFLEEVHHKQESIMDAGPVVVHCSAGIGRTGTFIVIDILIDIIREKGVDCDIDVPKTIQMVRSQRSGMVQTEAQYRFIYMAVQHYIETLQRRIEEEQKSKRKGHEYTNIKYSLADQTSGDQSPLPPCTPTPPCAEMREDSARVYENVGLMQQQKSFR

[2] = Nude, mouse, ip, 25 mg/kg, single IP 25 mg/kg
[3] = Nude, mouse, ip, 50 mg/kg, single IP 50 mg/kg
[4] = Nude, mouse, single IP 25 mg/kg
[5] = Nude, mouse, single IP 50 mg/kg

Question: Which results are given for `Cc1ncsc1-c1ccc([C@H](C)NC(=O)[C@@H]2C[C@@H](O)CN2C(=O)[C@@H](NC(=O)CCCCCCCCCN2CCN(C(=O)CCCCCC3(CN)CCN(c4cnc(Sc5cccc(Cl)c5Cl)c(N)n4)CC3)CC2)C(C)(C)C)cc1` [P9, (2S,4R)-1-((S)-2-(10-(4-(6-(1-(6-amino-5-((2,3-dichlorophenyl)thio)pyrazin-2-yl)-4-(aminomethyl)piperidin-4-yl)hexanoyl)piperazin-1-yl)decanamido)-3,3-dimethylbutanoyl)-4-hydroxy-N-((S)-1-(4-(4-methylthiazol-5-yl)phenyl)ethyl)pyrrolidine-2-carboxamide]?
Answer: IC50 (KYSE-520 cells): 640 ± 130 nM; Plasma concentration ([1]; 25 mg/kg IP, 0.5 h): 520 nM and 750 nM; Plasma concentration ([1]; 25 mg/kg IP, 1 h): 1200 nM and 1320 nM; Plasma concentration ([1]; 25 mg/kg IP, 2 h): 1090 nM and 930 nM; Plasma concentration ([1]; 25 mg/kg IP, 3 h): 620 nM and 590 nM; Plasma concentration ([1]; 25 mg/kg IP, 6 h): 410 nM and 390 nM; Plasma concentration ([1]; 25 mg/kg IP, 24 h): 130 nM and 180 nM and 60 nM; Plasma concentration ([1]; 50 mg/kg IP, 0.5 h): 1820 nM and 1960 nM; Plasma concentration ([1]; 50 mg/kg IP, 1 h): 2700 nM and 2550 nM; Plasma concentration ([1]; 50 mg/kg IP, 2 h): 1760 nM and 1700 nM; Plasma concentration ([1]; 50 mg/kg IP, 3 h): 1220 nM and 1150 nM; Plasma concentration ([1]; 50 mg/kg IP, 6 h): 700 nM and 680 nM; Plasma concentration ([1]; 50 mg/kg IP, 24 h): 160 nM and 240 nM and 100 nM; concentration at 0.5 h ([1]; Nude, mouse, 25 mg/kg, 25 mg/kg IP, 0.5 h): 560 nM; concentration at 1 h ([1]; Nude, mouse, 25 mg/kg, 25 mg/kg IP, 1 h): 1020 nM; concentration at 2 h ([1]; Nude, mouse, 25 mg/kg, 25 mg/kg IP, 2 h): 920 nM; concentration at 3 h ([1]; Nude, mouse, 25 mg/kg, 25 mg/kg IP, 3 h): 550 nM; concentration at 6 h ([1]; Nude, mouse, 25 mg/kg, 25 mg/kg IP, 6 h): 360 nM; concentration at 0.5 h ([1]; Nude, mouse, 50 mg/kg, 50 mg/kg IP, 0.5 h): 1760 nM; concentration at 1 h ([1]; Nude, mouse, 50 mg/kg, 50 mg/kg IP, 1 h): 2510 nM; concentration at 2 h ([1]; Nude, mouse, 50 mg/kg, 50 mg/kg IP, 2 h): 1660 nM; concentration at 3 h ([1]; Nude, mouse, 50 mg/kg, 50 mg/kg IP, 3 h): 1030 nM; concentration at 6 h ([1]; Nude, mouse, 50 mg/kg, 50 mg/kg IP, 6 h): 550 nM; Cmax [1, 2]: 1180 ± 130 nM; half-life [1, 2]: 3.71 ± 0.72 h; Cmax [1, 3]: 2510 ± 190 nM; half-life [1, 3]: 3.01 ± 0.48 h; AUC [1, 4]: 8.51 ± 0.6 µM·h; Tmax [1, 4]: 2 h; AUC [1, 5]: 15.1 ± 0.99 µM·h; Tmax [1, 5]: 2 h; Cmax ([1]; single IP 25 mg/kg, 25 mg/kg): 1200 ± 100 nM; t1/2 ([1]; single IP 25 mg/kg, 25 mg/kg): 3.7 ± 0.7 h; Cmax ([1]; single IP 50 mg/kg, 50 mg/kg): 2500 ± 200 nM; t1/2 ([1]; single IP 50 mg/kg, 50 mg/kg): 3.0 ± 0.5 h; time at which maximal SHP2 depletion was achieved (SHP2): 16 h; DC50 (SHP2; 16 h of treatment, read-out: DC50 (concentration required for 50% degradation of protein)): 35.2 ± 1.5 nM; hook effect (SHP2; tested concentration range): no significant hook effect; SHP2 protein degraded (SHP2; within 6 h of P9 treatment): Over 90%
